In patent US20230183640A1, “METABOLIC INHIBITORS WITH EFFICACY FOR INHIBITING SULFIDE PRODUCTION IN HARSH ENVIRONMENTS” (MC (US) 3 LLC, priority 2020, published 2023):

What was measured:
[1] = system: sulfate reducing bacteria; test: Efficacy in inhibiting H2S production from sulfate reducing bacteria; type: cell-based
Procedure: To understand the hydrogen sulfide inhibition efficacy of the N-hydroxycarboxamide compounds of the present invention, several compounds were tested. Some compounds that can be used in this H2S inhibiting composition are disclosed in Table 2. For the testing procedures, the compounds were dissolved in DMSO, resulting in a stock solution of about 8000-100000 ppm, which was subsequently diluted in 96-well plates or 10 mL serum vials containing media and selected culture to give varying concentrations from 0.09 to 1000 ppm of the compounds in final solution for efficacy testing.
Strains of commonly found bacteria were used for testing the efficacy of the compounds, viz. Desulfovibrio alaskensis, Desulfovibrio longus and Desulfovibrio gabonensis. Media for the cultures was also prepared by using a standard method. The cultures were aseptically used and incubated under anaerobic conditions. Two well established methods were used for testing various compounds:
The compounds C1, C12, C14, C15 and C16 were tested individually to understand each of their efficacies in inhibiting the H2S production from sulfate reducing bacteria, under standard temperature and pressure conditions. The efficacy of compounds C14 and C15 against hydrogen sulfide production are disclosed in Example 1, Tables 6 and 7.

[2] = system: Desulfovibrio alaskensis 14563; test: H2S and Log (Growth) efficacy against SRB, 96-Well Plate Method; type: cell-based
Procedure: A lyophilized Desulfovibrio alaskensis 14563, Desulfovibrio longus 51456, and Desulfovibrio gabonensis 700201 pure cultures received from ATCC were resuspended individually in 500 ul of MB 1250. Aseptically, the content was transferred to a 5-mL tube of MB1250 medium. The cultures were incubated in an anaerobic chamber at 30° C. for 72 hrs. Subsequently, an individual stock culture with a final concentration of 25% glycerol were prepared by adding equal volumes of culture and 50% glycerol. 1 ml of the cultures were then transferred to 2-ml cryogenic vials and stored at −80° C. The purity of the stock cultures was evaluated through PCR, by amplifying the 16S rDNA region, and thus, it was verified that the original ATCC sample was a pure culture. 48-hour cultures of ATCC Desulfovibrio alaskensis 14563, Desulfovibrio longus 51456, and Desulfovibrio gabonensis 700201 were prepared in an anaerobic chamber. Each culture was prepared as a 1:10 culture by taking 1 milliliter (mL) of a pure culture and inoculating 9 milliliters (mL) of fresh MB1250 media. The Desulfovibrio alaskensis 14563 and Desulfovibrio gabonensis 700201 were all grown at 30° C. and the Desulfovibrio longus 51456 culture was grown at 35° C.
After the 48-hour incubation, 600 microliters (μL) were taken from each culture and optical density (OD) was measured using a Thermofisher Spectronic 200 Spectrophotometer at 600 nm. Each culture was diluted to 0.05 OD600 in fresh MB1250 media and added to the 96 well plates. Edge wells were not used due to their inherent variability and evaporation of the media. Each of the components were added at their respective concentrations for a final volume of 500 μL per well. In Table 3, 6 and 7, the concentrations of the compound used for the experiments are listed. Each experiment was done with at least three replicates for different treatments and non-treatment controls. […] Plates were then sealed with a titer-top and placed into anaerobic boxes and incubated in an anaerobic incubator at 30° C.
At each time point, sulfide samples were taken, and enumeration plates were made. Enumeration plates were made to determine the log growth in each dosed sample. For this process, enumeration plates were prepared by adding 180 μL fresh media MB1250 containing 0.01 wt % ferrous ammonium sulfate. 20 μL was taken from each well of the challenge plates and transferred to the enumeration plates using a 20-200 μL multichannel pipette. Enumeration plates were mixed three times using the multichannel pipette and serial diluted down the plate tenfold (20 μL into 180 μL). This serial dilution process was repeated for all challenge plate rows giving a total of 6 enumeration plates.
After 7 days these enumeration plates were read. The ferrous ammonium sulfate in each plate would be converted to iron sulfide, changing wells with SRB growth from clear to black. By counting the number of black wells in a row, the log growth from the original well in the challenge plate can be determined.
To determine hydrogen sulfide production in each sample, sulfide samples were also taken from each challenge plate. From each well, 9 μL were taken and added to 60 μL of 2% zinc acetate with 0.02% acetic acid. Then, 180 μL of milliQ water was added. 60 μL of stock solution 1 containing 64% sulfuric acid, <1% Dimethyl-4-phenylenediamine (DMPD), water to 100% was added to each well on the plates. This was followed by 3 μL of stock solution 3 containing 50% Iron (III) chloride. All chemicals are ordered from Fisher Scientific and used as received. These were mixed three times and read after 15 minutes. The plates were read at 670 nm using a Biotek microplate reader. Absorbance readings were converted to mM using a standard curve and this was converted to parts per million using the molar mass of sulfur. The standard curves were made using sodium sulfide nonahydrate solutions to give final solutions of 0, 0.125, 0.25 0.5, 1.0, and 1.5 ppm.

O=C(CCCCCCC(=O)NO)NO [C14]
activity in reducing H2S production ([1]; Tables 6 and 7): did not show significant activity
H2S ([2]; Table 6 run, 2 days, 7.615 PPM): 71.3 PPM
Log (Growth) ([2]; Table 6 run, 2 days, 7.615 PPM): 7.0
H2S ([2]; Table 6 run, 2 days, 15.75 PPM): 56.4 PPM
Log (Growth) ([2]; Table 6 run, 2 days, 15.75 PPM): 8.0
H2S ([2]; Table 6 run, 2 days, 31.25 PPM): 56.3 PPM
Log (Growth) ([2]; Table 6 run, 2 days, 31.25 PPM): 7.3
H2S ([2]; Table 6 run, 2 days, 125 PPM): 131.9 PPM
Log (Growth) ([2]; Table 6 run, 2 days, 125 PPM): 8.0
H2S ([2]; Table 6 run, 2 days, 500 PPM): 54.6 PPM
Log (Growth) ([2]; Table 6 run, 2 days, 500 PPM): 7.7
H2S ([2]; Table 6 run, 2 days, 1000 PPM): 117.5 PPM
Log (Growth) ([2]; Table 6 run, 2 days, 1000 PPM): 7.7
H2S ([2]; Table 6 run, 5 days, 7.615 PPM): 45.6 PPM
Log (Growth) ([2]; Table 6 run, 5 days, 7.615 PPM): 7.3
H2S ([2]; Table 6 run, 5 days, 15.75 PPM): 34.7 PPM
Log (Growth) ([2]; Table 6 run, 5 days, 15.75 PPM): 7.3
H2S ([2]; Table 6 run, 5 days, 31.25 PPM): 29.0 PPM
Log (Growth) ([2]; Table 6 run, 5 days, 31.25 PPM): 7.3
H2S ([2]; Table 6 run, 5 days, 125 PPM): 45.0 PPM
Log (Growth) ([2]; Table 6 run, 5 days, 125 PPM): 7.3
H2S ([2]; Table 6 run, 5 days, 500 PPM): 42.2 PPM
Log (Growth) ([2]; Table 6 run, 5 days, 500 PPM): 7.0
H2S ([2]; Table 6 run, 5 days, 1000 PPM): 38.6 PPM
Log (Growth) ([2]; Table 6 run, 5 days, 1000 PPM): 8.0

O=C(CCCN1C(=O)c2cccc3cccc(c23)C1=O)NO [C12]
efficacy for inhibiting hydrogen sulfide production ([1]; anaerobic conditions): high efficacy
H2S ([2]; Table 6 run, 2 days, 7.615 PPM): 77.6 PPM
Log (Growth) ([2]; Table 6 run, 2 days, 7.615 PPM): 7
H2S ([2]; Table 6 run, 2 days, 15.75 PPM): 115.3 PPM
Log (Growth) ([2]; Table 6 run, 2 days, 15.75 PPM): 7.5
H2S ([2]; Table 6 run, 2 days, 31.25 PPM): 90.1 PPM
Log (Growth) ([2]; Table 6 run, 2 days, 31.25 PPM): 7.0
H2S ([2]; Table 6 run, 2 days, 125 PPM): 91.4 PPM
Log (Growth) ([2]; Table 6 run, 2 days, 125 PPM): 7.0
H2S ([2]; Table 6 run, 2 days, 500 PPM): 8.7 PPM
Log (Growth) ([2]; Table 6 run, 2 days, 500 PPM): 0.0
H2S ([2]; Table 6 run, 2 days, 1000 PPM): 5.4 PPM
Log (Growth) ([2]; Table 6 run, 2 days, 1000 PPM): 0.0
H2S ([2]; Table 6 run, 5 days, 7.615 PPM): 17.5 PPM
Log (Growth) ([2]; Table 6 run, 5 days, 7.615 PPM): 8.0
H2S ([2]; Table 6 run, 5 days, 15.75 PPM): 26.7 PPM
Log (Growth) ([2]; Table 6 run, 5 days, 15.75 PPM): 8.0
H2S ([2]; Table 6 run, 5 days, 31.25 PPM): 42.5 PPM
Log (Growth) ([2]; Table 6 run, 5 days, 31.25 PPM): 7.0
H2S ([2]; Table 6 run, 5 days, 125 PPM): 21.3 PPM
Log (Growth) ([2]; Table 6 run, 5 days, 125 PPM): 3.0
H2S ([2]; Table 6 run, 5 days, 500 PPM): 6.1 PPM
Log (Growth) ([2]; Table 6 run, 5 days, 500 PPM): 0.0
H2S ([2]; Table 6 run, 5 days, 1000 PPM): 4.8 PPM
Log (Growth) ([2]; Table 6 run, 5 days, 1000 PPM): 0.0
H2S ([2]; Table 7 run, 2 days, 7.615 PPM): 67.5 PPM
Log (Growth) ([2]; Table 7 run, 2 days, 7.615 PPM): 8.0
H2S ([2]; Table 7 run, 2 days, 15.75 PPM): 43.7 PPM
Log (Growth) ([2]; Table 7 run, 2 days, 15.75 PPM): 7.3
H2S ([2]; Table 7 run, 2 days, 31.25 PPM): 18.2 PPM
Log (Growth) ([2]; Table 7 run, 2 days, 31.25 PPM): 7.5
H2S ([2]; Table 7 run, 2 days, 125 PPM): 12.2 PPM
Log (Growth) ([2]; Table 7 run, 2 days, 125 PPM): 5.0
H2S ([2]; Table 7 run, 2 days, 500 PPM): 2.2 PPM
Log (Growth) ([2]; Table 7 run, 2 days, 500 PPM): 3.0
H2S ([2]; Table 7 run, 2 days, 1000 PPM): 1.8 PPM
Log (Growth) ([2]; Table 7 run, 2 days, 1000 PPM): 2.5
H2S ([2]; Table 7 run, 5 days, 7.615 PPM): 30.6 PPM
Log (Growth) ([2]; Table 7 run, 5 days, 7.615 PPM): 7.3
H2S ([2]; Table 7 run, 5 days, 15.75 PPM): 34.4 PPM
Log (Growth) ([2]; Table 7 run, 5 days, 15.75 PPM): 6.7
H2S ([2]; Table 7 run, 5 days, 31.25 PPM): 15.1 PPM
Log (Growth) ([2]; Table 7 run, 5 days, 31.25 PPM): 5.5
H2S ([2]; Table 7 run, 5 days, 125 PPM): 6.2 PPM
Log (Growth) ([2]; Table 7 run, 5 days, 125 PPM): 5.0
H2S ([2]; Table 7 run, 5 days, 500 PPM): 1.9 PPM
Log (Growth) ([2]; Table 7 run, 5 days, 500 PPM): 0.0
H2S ([2]; Table 7 run, 5 days, 1000 PPM): 2.0 PPM
Log (Growth) ([2]; Table 7 run, 5 days, 1000 PPM): 0.0
